Drawing on PMC4926359, “Cloning, Expression and 3D Structure Prediction of Chitinase from Chitinolyticbacter meiyuanensis SYBC-H1” (International Journal of Molecular Sciences, 2016), this text covers Km for one compound.

The assay has as its system CHI2 chitinase. Description: p-nitrophenol release at […] nm, Lineweaver-Burk. The format is biochemical, Chitinolyticbacter meiyuanensis. To be noted: 50 mM sodium phosphate pH 7.0, 37 °C; substrate range 50-250 μM; unit contradictory in the paper: mM in b32 and b39, µmol/L in abstract b1.

One may read the Km as the concentration of substrate that gives half-maximal velocity. With `CC(=O)N[C@H]1[C@H](Oc2ccc([N+](=O)[O-])cc2)O[C@H](CO)[C@@H](O)[C@@H]1O` [p-NP-GlcNAc], the Michaelis-Menten constant (Km) is 23 mM.
